These results are taken from publication PMC4766503, “A novel peptide with potent and broad-spectrum antiviral activities against multiple respiratory viruses” (Scientific Reports, 2016).

Peptide text beside a SMILES is read from it. Where only a bound is given, the exact number is not on record here.

The test system of one data set is H5N1 virus. Set-up: species or system BALB/c mice. The settings on record: mouse, in vivo.
In a further data set the test system is H7N9 virus. Set-up: species or system BALB/c mice. Particulars: mouse, in vivo.
The subject of data set [1] is H1N1 virus. Set-up: species or system BALB/c mice. The settings on record: mouse, in vivo.
In data set [2] the test system is endosomal acidification in H1N1-infected MDCK cells. In kind it is cell-based, canine.
Data set [3] concerns SARS-CoV. Particulars: in vivo.
For data set [4] the following is noted: in vivo.
Data set [5] deals with H1N1 virus. The settings on record: for 50% inhibitory concentration (IC50) against H1N1: virus, 1 h.
In a further data set the target is MERS-CoV S1 (Middle East respiratory syndrome-related coronavirus, UniProt K9N5Q8).
Another data set addresses H1N1 viral HA (Influenza A virus, UniProt C3W5S1).
The test system of another data set is MDCK cells. Particulars: 24 h.
A further data set deals with MERS-CoV S2 (Middle East respiratory syndrome-related coronavirus, UniProt K9N5Q8).
For data set [6] the following is noted: synthetic P9, water.
In data set [7] the test system is influenza A virus H3N2, H5N1, H7N7 and H7N9. Particulars: H7N7 and H7N9, 24 h.
The conditions of data set [8]: mouse, in vivo.
For data set [9], the system named is SARS-CoV.
Data set [10] concerns HA-cell membrane fusion in 293FT cells expressing HA. Particulars: low pH 5.0.

Sequence of H1N1 viral HA (C3W5S1 entry or part of it, added parts left off): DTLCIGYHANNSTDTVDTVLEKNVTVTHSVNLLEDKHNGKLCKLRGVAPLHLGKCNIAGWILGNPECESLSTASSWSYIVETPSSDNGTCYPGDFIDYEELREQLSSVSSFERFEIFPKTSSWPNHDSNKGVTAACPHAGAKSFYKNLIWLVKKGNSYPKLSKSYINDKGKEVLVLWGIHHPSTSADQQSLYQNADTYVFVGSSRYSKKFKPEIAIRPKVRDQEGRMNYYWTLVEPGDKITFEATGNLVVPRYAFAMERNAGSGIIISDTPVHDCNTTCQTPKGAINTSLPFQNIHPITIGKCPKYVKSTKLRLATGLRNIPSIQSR
Sequence of MERS-CoV S1 (K9N5Q8 18-751 limits assumed): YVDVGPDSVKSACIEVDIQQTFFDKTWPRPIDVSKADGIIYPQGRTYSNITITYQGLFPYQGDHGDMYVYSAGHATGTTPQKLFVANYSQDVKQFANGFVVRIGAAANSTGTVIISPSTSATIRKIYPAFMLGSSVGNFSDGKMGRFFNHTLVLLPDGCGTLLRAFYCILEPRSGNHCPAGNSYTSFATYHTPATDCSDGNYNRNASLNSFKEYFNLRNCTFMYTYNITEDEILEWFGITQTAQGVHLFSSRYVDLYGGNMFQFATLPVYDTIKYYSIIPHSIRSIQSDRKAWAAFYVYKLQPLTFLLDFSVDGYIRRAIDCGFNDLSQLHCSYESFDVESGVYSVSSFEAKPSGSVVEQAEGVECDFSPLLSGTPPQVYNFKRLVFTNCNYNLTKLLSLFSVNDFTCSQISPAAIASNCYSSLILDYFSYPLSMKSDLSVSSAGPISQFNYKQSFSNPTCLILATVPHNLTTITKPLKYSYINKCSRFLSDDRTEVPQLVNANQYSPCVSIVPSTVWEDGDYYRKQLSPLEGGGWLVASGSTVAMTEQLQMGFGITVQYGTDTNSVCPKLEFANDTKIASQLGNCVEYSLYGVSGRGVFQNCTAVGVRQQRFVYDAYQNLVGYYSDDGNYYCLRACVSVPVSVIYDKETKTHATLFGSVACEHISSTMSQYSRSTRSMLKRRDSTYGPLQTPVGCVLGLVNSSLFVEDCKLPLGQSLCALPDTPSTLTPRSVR
Sequence of MERS-CoV S2 (K9N5Q8 752-1353 limits assumed): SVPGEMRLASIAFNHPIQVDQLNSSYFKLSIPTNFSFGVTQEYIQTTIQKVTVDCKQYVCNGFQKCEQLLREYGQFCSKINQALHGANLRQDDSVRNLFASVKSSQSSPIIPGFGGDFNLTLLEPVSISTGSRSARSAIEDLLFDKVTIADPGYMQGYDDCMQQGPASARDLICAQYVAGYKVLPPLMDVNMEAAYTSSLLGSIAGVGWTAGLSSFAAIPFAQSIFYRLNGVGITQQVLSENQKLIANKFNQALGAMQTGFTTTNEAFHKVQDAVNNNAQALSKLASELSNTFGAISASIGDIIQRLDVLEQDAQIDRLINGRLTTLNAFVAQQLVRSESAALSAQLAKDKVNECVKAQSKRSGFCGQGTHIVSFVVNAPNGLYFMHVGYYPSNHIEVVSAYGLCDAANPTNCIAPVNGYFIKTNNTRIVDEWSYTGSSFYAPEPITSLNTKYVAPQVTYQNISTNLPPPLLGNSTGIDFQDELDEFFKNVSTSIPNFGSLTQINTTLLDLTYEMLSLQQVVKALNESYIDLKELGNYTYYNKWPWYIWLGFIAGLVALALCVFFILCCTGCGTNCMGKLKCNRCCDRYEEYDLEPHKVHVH

Take `CC(=O)N[C@H]1[C@H]([C@H](O)[C@H](O)CO)OC(C(=O)O)=C[C@@H]1N=C(N)N` [Zanamivir, reference compound]: in the data set on H5N1 virus, the “mice protected from lethal H5N1 challenge, prophylaxis” value came out at 50% and the “mice protected from lethal H5N1 challenge, therapy” value is 60%. Also, in the data set on H7N9 virus, the “mice protected from lethal H7N9 challenge, prophylaxis” value is recorded as 60% and the “mice protected from lethal H7N9 challenge, therapy” value came to 70%. Also, the “survival rate, therapeutic” value with H1N1 virus [1] was determined as 80%.
In the case of `CO/C1=C\C(C)=C\[C@@H](C)[C@@H](O)[C@@H](C)C/C(C)=C/C=C/[C@H](OC)[C@@H]([C@@H](C)[C@@H](O)[C@H](C)[C@@]2(O)C[C@@H](O)[C@H](C)[C@@H](C(C)C)O2)OC1=O` [Bafilomycin A1, reference compound], the “pH lowering (acidification) in endosomes” value in [2] is listed as “acidification was abolished”.
Turning to `CC[C@H](C)[C@H](NC(=O)[C@H](C)NC(=O)CNC(=O)[C@@H](N)CC(N)=O)C(=O)N[C@@H](CS)C(=O)N[C@@H](Cc1c[nH]c2ccccc12)C(=O)NCC(=O)N1CCC[C@H]1C(=O)N[C@@H](CS)C(=O)N1CCC[C@H]1C(=O)N[C@H](C(=O)N[C@@H](C)C(=O)N[C@@H](Cc1ccccc1)C(=O)N[C@@H](CCCNC(=N)N)C(=O)N[C@@H](CCC(N)=O)C(=O)N[C@H](C(=O)NCC(=O)N[C@@H](CC(N)=O)C(=O)N[C@@H](CS)C(=O)NCC(=O)N[C@@H](Cc1c[nH]cn1)C(=O)N[C@@H](Cc1ccccc1)C(=O)N[C@@H](CCCCN)C(=O)N[C@H](C(=O)N[C@@H](CCCNC(=N)N)C(=O)N[C@@H](CS)C(=O)N[C@@H](CS)C(=O)N[C@@H](CCCCN)C(=O)N[C@H](C(=O)N[C@@H](CCCNC(=N)N)C(=O)O)[C@@H](C)CC)C(C)C)[C@@H](C)CC)[C@@H](C)O` [Peptide P9] (H-NGAICWGPCPTAFRQIGNCGHFKVRCCKIR-OH), in the data set on SARS-CoV [3], the “virus infection in mouse lungs” value is “significantly inhibited”. Besides, the “P9 signal on surface of mouse bronchial tubes after administration” value in [4] was “almost undetectable level”. In addition, in the data set with H1N1 virus [5], the “antiviral activity among short peptides” value is given as “strongest antiviral activity” and the “50% inhibitory concentration (IC50) against H1N1” value came to 1.2 µg/mL. The “binding to S1 of MERS-CoV” value at MERS-CoV S1 was “not S1”. For the same molecule, in the data set with MERS-CoV, the “inhibition of MERS-CoV infection” value is “more than 95%”. In the data set with MERS-CoV (24 h), the “IC50 against MERS-CoV” value is “about 5 μg/ml”. Also, the “binding to NA” value in the data set on H1N1 viral NA is “not NA”. Besides, the “binding to HA” value on H1N1 viral HA is recorded as “bound to HA”. In addition, in the data set on MDCK cells, the “50% toxic concentration (TC50)” value was 380 µg/mL. In the data set with H5N1 virus, the “mice protected from lethal H5N1 challenge, prophylaxis” value was determined as 44% and the “mice protected from lethal H5N1 challenge, therapy” value was 50%. The “binding to S2 of MERS-CoV” value on MERS-CoV S2 was “bound to S2”. Besides, the “solubility and stability in water” value in data set [6] is “highly soluble and stable in water”. In addition, in [7], the “IC50s against H3N2, H5N1, H7N7 and H7N9” value lay within 1.5 to 4.8 µg/mL. For the same molecule, the “pH lowering (acidification) in endosomes” value in data set [2] is on record as “acidification was abolished”. Also, the “food consumption or sickness” value in data set [8] is “no obvious reduction of food consumption or sickness”. In addition, in data set [8] (50 mg/kg), the “body weight loss, i.n.” value is on record as “less than 10%”. Moreover, the “body weight loss, i.p.” value in data set [8] (ip, 500 mg/kg) was “less than 10%”. For the same molecule, the “inhibition of SARS-CoV infection” value in the data set on SARS-CoV [9] is “more than 95%”. For the same molecule, the “IC50 against SARS-CoV” value in the data set on SARS-CoV [9] (24 h) is recorded as “about 5 μg/ml”. In addition, in the data set with H7N9 virus, the “mice protected from lethal H7N9 challenge, prophylaxis” value was 50% and the “mice protected from lethal H7N9 challenge, therapy” value is listed as 50%. In addition, the “HA-cell membrane fusion (polykaryon formation)” value in data set [10] is listed as “did not directly inhibit”. For the same molecule, in the data set on H1N1 virus [1], the “mice protected from lethal challenge, P9 given 2 h before challenge” value is recorded as 60%; the “mice protected from lethal challenge, P9 given 4 h before challenge” value came out at 30%; the “mice protected from lethal challenge, P9 given 8 h before challenge” value was found to be 20%; the “survival rate, prophylactic” value stood at 100%. Further, in the data set on H1N1 virus [1], the “survival rate, therapeutic” value is given as 60% and the “viral loads in lung tissues” value was “significantly lower”.
Regarding `CC[C@H](C)[C@H](NC(=O)[C@H](C)NC(=O)CNC(=O)[C@@H](N)CC(N)=O)C(=O)N[C@@H](CS)C(=O)N[C@@H](Cc1c[nH]c2ccccc12)C(=O)NCC(=O)N1CCC[C@H]1C(=O)N[C@@H](CS)C(=O)N1CCC[C@H]1C(=O)N[C@H](C(=O)N[C@@H](C)C(=O)N[C@@H](Cc1ccccc1)C(=O)N[C@@H](CCCNC(=N)N)C(=O)N[C@@H](CCC(N)=O)C(=O)N[C@H](C(=O)NCC(=O)N[C@@H](CC(N)=O)C(=O)N[C@@H](CS)C(=O)NCC(=O)N[C@@H](Cc1c[nH]cn1)C(=O)N[C@@H](Cc1ccccc1)C(=O)N[C@@H](CCCCN)C(=O)N[C@H](C(=O)N[C@@H](CCCNC(=N)N)C(=O)N[C@@H](CS)C(=O)N[C@@H](CS)C(=O)N[C@@H](CCCCN)C(=O)N[C@H](C(=O)N[C@@H](CCCNC(=N)N)C(=O)N[C@@H](CC(=O)O)C(=O)N[C@@H](CCC(=O)O)C(=O)N[C@@H](CC(=O)O)C(=O)O)[C@@H](C)CC)C(C)C)[C@@H](C)CC)[C@@H](C)O` [Peptide P9-aci-1] (H-NGAICWGPCPTAFRQIGNCGHFKVRCCKIRDED-OH), the “50% inhibitory concentration (IC50) against H1N1” value with H1N1 virus [5] is > 100 µg/mL. Moreover, in data set [2], the “pH lowering (acidification) in endosomes” value is reported as “unaffected”.
For the molecule `Cl.N` [NH4Cl, ammonium chloride, reference compound], the “pH lowering (acidification) in endosomes” value in data set [2] is “acidification was abolished”.
